Several values for one entry are separate records, joined by “and”; a condition that tells them apart may be missing. Equal entries are not always repeated.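 Values below derive from 48-hour exposures of cells grown in 96-well plates, with endpoints linearly interpolated between the two concentrations bracketing the appropriate inhibition level. GI50 is the concentration that inhibits growth by half. Definition used: TGI = concentration required for complete inhibition of growth.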
Assays:
Experiment in all cases: NCI tumour cell line growth inhibition, 48 h
NCI-H23 lung = test system: NCI-H23 lung
ACHN renal = test system: ACHN renal
UO-31 renal = test system: UO-31 renal
MOLT-4 leukemia = test system: MOLT-4 leukemia
PC-3 prostate = test system: PC-3 prostate
IGROV1 ovarian = test system: IGROV1 ovarian
NCI/ADR-RES ovarian = test system: NCI/ADR-RES ovarian
KM12 colon = test system: KM12 colon
SW-620 colon = test system: SW-620 colon
EKVX NSCLC = test system: EKVX NSCLC
T-47D breast = test system: T-47D breast
SF-268 CNS = test system: SF-268 CNS
TK-10 renal = test system: TK-10 renal
NCI-H522 lung = test system: NCI-H522 lung
SK-MEL-2 melanoma = test system: SK-MEL-2 melanoma
HT29 colon = test system: HT29 colon
HCT-116 colon = test system: HCT-116 colon
BT-549 breast = test system: BT-549 breast
K-562 leukemia = test system: K-562 leukemia
UACC-62 melanoma = test system: UACC-62 melanoma
SN12C renal = test system: SN12C renal
RXF 393 renal = test system: RXF 393 renal
MDA-MB-231 breast = test system: MDA-MB-231 breast
LOX IMVI melanoma = test system: LOX IMVI melanoma
U251 CNS = test system: U251 CNS
A498 renal = test system: A498 renal
MALME-3M melanoma = test system: MALME-3M melanoma
DU-145 prostate = test system: DU-145 prostate
SK-OV-3 ovarian = test system: SK-OV-3 ovarian
M14 melanoma = test system: M14 melanoma
SK-MEL-28 melanoma = test system: SK-MEL-28 melanoma
COLO 205 colon = test system: COLO 205 colon
NCI-H226 lung = test system: NCI-H226 lung
HOP-62 NSCLC = test system: HOP-62 NSCLC
SR leukemia = test system: SR leukemia
NCI-H460 lung = test system: NCI-H460 lung
OVCAR-3 ovarian = test system: OVCAR-3 ovarian
SF-295 CNS = test system: SF-295 CNS
MDA-MB-435 = test system: MDA-MB-435
A549 NSCLC = test system: A549 NSCLC
HS 578T breast = test system: HS 578T breast
HCC-2998 colon = test system: HCC-2998 colon
SK-MEL-5 melanoma = test system: SK-MEL-5 melanoma
786-0 renal = test system: 786-0 renal
HL-60(TB) leukemia = test system: HL-60(TB) leukemia
RPMI-8226 leukemia = test system: RPMI-8226 leukemia
OVCAR-5 ovarian = test system: OVCAR-5 ovarian
OVCAR-8 ovarian = test system: OVCAR-8 ovarian
HOP-92 NSCLC = test system: HOP-92 NSCLC
OVCAR-4 ovarian = test system: OVCAR-4 ovarian
HCT-15 colon = test system: HCT-15 colon
MCF7 breast = test system: MCF7 breast
SF-539 CNS = test system: SF-539 CNS
UACC-257 melanoma = test system: UACC-257 melanoma
CCRF-CEM leukemia = test system: CCRF-CEM leukemia
SNB-19 CNS = test system: SNB-19 CNS

## COC(=O)N[C@H]1C=C[C@@H]2/C=C(C)/C=C/[C@@H](C)[C@H]([C@H](C)[C@H](O)[C@@H](C)NC(C)=O)OC(=O)/C=C/C=C(C)\C=C\[C@]2(C)C1
NCI-H23 lung
  GI50: 0.0943 µM and 0.0964 µM
  TGI: > 45.3 µM
ACHN renal
  GI50: 0.00453 µM
  TGI: > 45.3 µM
UO-31 renal
  GI50: 0.00747 µM and 0.00453 µM
  TGI: 28.7 µM
MOLT-4 leukemia
  GI50: 8.51 µM
  TGI: > 45.3 µM
PC-3 prostate
  GI50: 0.00785 µM and 0.00453 µM
  TGI: > 45.3 µM
IGROV1 ovarian
  GI50: 0.0248 µM and 0.00453 µM
  TGI: > 45.3 µM
NCI/ADR-RES ovarian
  GI50: 0.0282 µM and 0.0161 µM
  TGI: > 45.3 µM
KM12 colon
  GI50: 0.00959 µM and 0.0135 µM
  TGI: > 45.3 µM
SW-620 colon
  GI50: 0.00892 µM and 0.00453 µM
  TGI: 16.2 µM
EKVX NSCLC
  TGI: > 45.3 µM
T-47D breast
  GI50: 0.00696 µM and 0.00453 µM
  TGI: > 45.3 µM
SF-268 CNS
  TGI: > 45.3 µM
TK-10 renal
  GI50: 5.12 µM and 5.68 µM
  TGI: > 45.3 µM
NCI-H522 lung
  GI50: 0.0613 µM and 0.0388 µM
  TGI: 19.2 µM
SK-MEL-2 melanoma
  GI50: 7.19 µM
  TGI: 33.1 µM
HT29 colon
  GI50: 0.00618 µM and 0.00453 µM
  TGI: > 45.3 µM
HCT-116 colon
  GI50: 0.00371 µM and 0.00453 µM
  TGI: > 45.3 µM
BT-549 breast
  GI50: 0.0187 µM and 0.0126 µM
  TGI: 42.1 µM
K-562 leukemia
  GI50: 0.0146 µM
  TGI: > 45.3 µM
UACC-62 melanoma
  GI50: 0.0189 µM and 0.0196 µM
  TGI: 8.92 µM
SN12C renal
  GI50: 0.00813 µM and 0.00518 µM
  TGI: > 45.3 µM
RXF 393 renal
  GI50: 0.00449 µM and 0.00453 µM
  TGI: 16.2 µM
MDA-MB-231 breast
  GI50: 0.00228 µM and 0.00453 µM
LOX IMVI melanoma
  GI50: 0.00294 µM and 0.00453 µM
  TGI: 0.011 µM and 0.00475 µM
U251 CNS
  GI50: 0.00472 µM and 0.00453 µM
  TGI: 24.7 µM
A498 renal
  GI50: 0.0132 µM and 0.0135 µM
MALME-3M melanoma
  GI50: 1.19 µM and 0.261 µM
  TGI: 10.8 µM
DU-145 prostate
  TGI: > 45.3 µM
SK-OV-3 ovarian
  GI50: 0.0067 µM
M14 melanoma
  GI50: 0.00369 µM and < 0.00453 µM
  TGI: 0.0358 µM and < 0.00453 µM
SK-MEL-28 melanoma
  GI50: 0.0121 µM and 0.0102 µM
  TGI: 13.3 µM
COLO 205 colon
  GI50: 0.014 µM and 0.0113 µM
  TGI: 7.07 µM
NCI-H226 lung
  GI50: 0.0283 µM and 0.00504 µM
  TGI: 9.15 µM
HOP-62 NSCLC
  GI50: 0.0705 µM and 0.0278 µM
  TGI: > 45.3 µM
SR leukemia
  GI50: 0.007 µM and 0.00453 µM
  TGI: 13.4 µM
NCI-H460 lung
  GI50: 0.0135 µM and 0.00697 µM
  TGI: > 45.3 µM
OVCAR-3 ovarian
  GI50: 0.172 µM and 0.635 µM
  TGI: 16.5 µM
SF-295 CNS
  GI50: 0.00371 µM and 0.00453 µM
MDA-MB-435
  GI50: 0.00374 µM and 0.00453 µM
  TGI: 10.6 µM
A549 NSCLC
  GI50: 0.0312 µM and 0.00453 µM
  TGI: > 45.3 µM
HS 578T breast
  GI50: 0.0293 µM and 0.0165 µM
  TGI: > 45.3 µM
HCC-2998 colon
  TGI: > 45.3 µM
SK-MEL-5 melanoma
  GI50: 0.00365 µM and 0.00453 µM
  TGI: 0.0291 µM and 0.015 µM
786-0 renal
  GI50: 0.0165 µM and 0.00746 µM
  TGI: > 45.3 µM
HL-60(TB) leukemia
  GI50: 0.00722 µM and 0.00548 µM
  TGI: 19.6 µM
RPMI-8226 leukemia
  GI50: 0.0173 µM and 0.00459 µM
  TGI: 21 µM
OVCAR-5 ovarian
  GI50: 8.01 µM and 6.55 µM
  TGI: > 45.3 µM
OVCAR-8 ovarian
  GI50: 0.0179 µM and 0.00745 µM
  TGI: > 45.3 µM
HOP-92 NSCLC
  GI50: 0.00211 µM and 0.00453 µM
  TGI: 0.044 µM and 0.0268 µM
OVCAR-4 ovarian
  GI50: 5.92 µM
  TGI: > 45.3 µM
HCT-15 colon
  GI50: 0.00893 µM and 0.00736 µM
  TGI: > 45.3 µM
MCF7 breast
  GI50: 0.00826 µM and 0.00453 µM
  TGI: > 45.3 µM
SF-539 CNS
  GI50: 0.00413 µM and 0.00453 µM
  TGI: 6.55 µM
UACC-257 melanoma
  GI50: 0.029 µM and 0.00453 µM
  TGI: > 45.3 µM
CCRF-CEM leukemia
  GI50: 2.58 µM
  TGI: > 45.3 µM
SNB-19 CNS
  GI50: 0.118 µM and 0.0164 µM
  TGI: > 45.3 µM

Source: PubChem BioAssay (NCI)
